Data set [1] addresses T1, Estrogen receptor (Homo sapiens, UniProt P03372).
T1 sequence (P03372 whole entry): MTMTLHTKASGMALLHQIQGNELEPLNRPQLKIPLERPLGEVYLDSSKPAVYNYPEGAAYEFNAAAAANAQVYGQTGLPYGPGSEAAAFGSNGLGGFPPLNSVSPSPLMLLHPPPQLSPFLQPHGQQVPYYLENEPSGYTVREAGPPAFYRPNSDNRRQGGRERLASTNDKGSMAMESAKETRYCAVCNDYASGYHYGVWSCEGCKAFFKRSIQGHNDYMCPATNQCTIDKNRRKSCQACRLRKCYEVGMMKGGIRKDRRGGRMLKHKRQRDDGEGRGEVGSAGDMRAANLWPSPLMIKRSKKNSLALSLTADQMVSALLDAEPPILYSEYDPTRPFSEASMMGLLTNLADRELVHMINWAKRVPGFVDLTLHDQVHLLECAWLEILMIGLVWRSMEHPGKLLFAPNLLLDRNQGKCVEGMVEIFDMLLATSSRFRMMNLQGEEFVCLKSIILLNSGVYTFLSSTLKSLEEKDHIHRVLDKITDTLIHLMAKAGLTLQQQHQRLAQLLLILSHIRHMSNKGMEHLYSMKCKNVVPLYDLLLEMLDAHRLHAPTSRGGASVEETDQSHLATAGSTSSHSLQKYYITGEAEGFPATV
Put plainly: Induction of Estrogen receptor degradation in wildtype human MCF7 cells assessed as reduction in estrogen receptor level incubated for 24 hrs by Western blot analysis. It counts as cell-based.

The test system of data set [2] is MCF7. Put plainly: Antiproliferative activity against wildtype human MCF7 cells assessed as inhibition of cell proliferation incubated for 6 days in presence of beta-estradiol by CellTiter-Glo assay. In kind it is functional, cell-based. The note with it: MCF7, 144 h. On the technique in general: ATP-based viability assays read luminescence as a measure of living cells.

The nature of data set [3]: Metabolic stability in rat liver microsomes assessed as parent compound remaining incubated for 60 mins in presence of NADPH by LC-MS/MS analysis. It counts as ADME, Microsome. The settings on record: read-out: Stability. For orientation: Liver microsomes are a subcellular fraction often used to study metabolism.
A short description of data set [4]: Metabolic stability in human liver microsomes assessed as parent compound remaining incubated for 60 mins in presence of NADPH by LC-MS/MS analysis. It counts as ADME, Microsome. The note with it: read-out: Stability.
Data set [5] concerns MCF7. Description: Induction of apoptosis in human MCF7 cells assessed as viable cells at 4 nM incubated for 24 hrs by Annexin V-FITC/PI staining based flow cytometric analysis (reference value: 93.5 %). In kind it is functional. The settings on record: read-out: Activity.
The test system of data set [6] is MCF7. Put plainly: Induction of apoptosis in human MCF7 cells assessed as viable cells at 20 nM incubated for 24 hrs by Annexin V-FITC/PI staining based flow cytometric analysis (reference value: 93.5 %). In kind it is functional. The note with it: read-out: Activity. For orientation: A flow cytometer gives signals particle by particle.
In data set [7] the test system is MCF7. Put plainly: Induction of apoptosis in human MCF7 cells assessed as viable cells at 100 nM incubated for 24 hrs by Annexin V-FITC/PI staining based flow cytometric analysis (reference value: 93.5 %). The note with it: read-out: Activity. It counts as functional.
Data set [8] in a line: Half-life in Sprague-Dawley rat at 30 mg/kg, IM measured after 49 days by LC-MS/MS analysis. In kind it is ADME, organism-based. The settings on record: in vivo, time 49 day.
Data set [9] in a line: Tmax in Sprague-Dawley rat at 30 mg/kg, IM measured after 49 days by LC-MS/MS analysis. It counts as ADME, organism-based. The note with it: in vivo, 1176 h, time 49 day.
Data set [10] is described as follows: Cmax in Sprague-Dawley rat at 30 mg/kg, IM measured after 49 days by LC-MS/MS analysis. It counts as ADME, organism-based. The note with it: in vivo, time 49 day.
The nature of data set [11]: AUClast in Sprague-Dawley rat at 30 mg/kg, IM measured after 49 days by LC-MS/MS analysis. It counts as ADME, organism-based. The settings on record: in vivo, 1176 h, time 49 day.
A short description of data set [12]: Apparent volume of distribution during terminal phase in Sprague-Dawley rat at 30 mg/kg, IM measured after 49 days by LC-MS/MS analysis. The note with it: in vivo, 1176 h, time 49 day. It counts as ADME, organism-based.
A short description of data set [13]: MRT in Sprague-Dawley rat at 30 mg/kg, IM measured after 49 days by LC-MS/MS analysis. The note with it: in vivo, time 49 day. It counts as ADME, organism-based.
Data set [14] can be described thus: Solubility of compound in long acting formulation containing ethanol, benzyl alcohol, benzyl benzoate and castor oil assessed as clear yellow oil solution at 33.69 mg incubated for 1 day by LC-MS/MS analysis. The note with it: 24 h. In kind it is physicochemical.
Data set [15] in a line: Solubility of compound in long acting formulation containing ethanol, benzyl alcohol, benzyl benzoate and castor oil at 57.27 mg incubated for 1 day by LC-MS/MS analysis. It counts as physicochemical. The note with it: 24 h.
The nature of data set [16]: Solubility of compound in long acting formulation containing ethanol, benzyl alcohol, benzyl benzoate and castor oil at 28.07 mg incubated for 1 day by LC-MS/MS analysis. In kind it is physicochemical. The settings on record: 24 h.
The nature of data set [17]: Solubility of compound in long acting formulation containing ethanol, benzyl alcohol, benzyl benzoate and castor oil incubated for 1 days by LC-MS/MS analysis. In kind it is physicochemical. The note with it: 24 h; time 1 day.
Data set [18] in a line: Drug concentration in BALB/cNj Foxn1nu/Gpt mouse plasma xenografted with human MCF-7/TAMR-1 cells at 0.8 mg, IM administered for 28 days. It counts as ADME, cell-free. The note with it: time 28 day.
The nature of data set [19]: Drug concentration in BALB/cNj Foxn1nu/Gpt mouse plasma xenografted with human MCF-7/TAMR-1 cells at 2.4 mg, IM administered for 28 days. The settings on record: time 28 day. It counts as ADME, cell-free.
Data set [20] can be described thus: Drug concentration in BALB/cNj Foxn1nu/Gpt mouse plasma xenografted with human MCF-7/TAMR-1 cells at 7.2 mg, IM administered for 28 days. In kind it is ADME, cell-free. The note with it: time 28 day.
Data set [21] can be described thus: Drug concentration in BALB/cNj Foxn1nu/Gpt mouse tumor xenografted with human MCF-7/TAMR-1 cells at 0.8 mg, IM administered for 28 days. It counts as ADME, tissue-based, Neoplasm. The note with it: time 28 day, read-out: Ct.
A short description of data set [22]: Drug concentration in BALB/cNj Foxn1nu/Gpt mouse tumor xenografted with human MCF-7/TAMR-1 cells at 2.4 mg, IM administered for 28 days. It counts as ADME, tissue-based, Neoplasm. The settings on record: time 28 day, read-out: Ct.
Data set [23] is described as follows: Drug concentration in BALB/cNj Foxn1nu/Gpt mouse tumor xenografted with human MCF-7/TAMR-1 cells at 7.2 mg, IM administered for 28 days. The settings on record: time 28 day, read-out: Ct. In kind it is ADME, tissue-based, Neoplasm.

Converted amounts (≈) assume the structure as drawn.

As usually defined, the DC50 is the concentration giving 50% degradation. As usually defined, the IC50 is the concentration at which inhibition is half-maximal. Regarding `C[C@@H]1Cc2c([nH]c3ccccc23)[C@@H](c2c(F)cc(NC3CN(CCCS(=O)(=O)CCCC(F)(F)C(F)(F)F)C3)cc2F)N1CC(F)(F)F`, the DC50 in [1] came to 10.6 nM. Further, the IC50 in data set [2] amounted to 9.7 nM. Besides, the remaining at 1 h in [3] is 99.1%; in data set [4], 71.2%.
For `C[C@@H]1Cc2c([nH]c3ccccc23)[C@@H](c2c(F)cc(NC3CN(CCOCCCC(F)(F)C(F)(F)F)C3)cc2F)N1CC(F)(F)CO`, the 50% degradation concentration (DC50) in data set [1] stood at 3.8 nM.
Turning to `C[C@@H]1Cc2c([nH]c3ccccc23)[C@@H](c2c(F)cc(NC3CN(CCC[S+]([O-])CCCC(F)(F)C(F)(F)F)C3)cc2F)N1CC(F)(F)CO` (some centres not stated), in data set [1], the DC50 came to 1.2 nM. The IC50 in [2] was found to be 0.9 nM. The remaining at 1 h was 79.3% in data set [3] and 60.1% in [4].
For the compound `C[C@@H]1Cc2c([nH]c3ccccc23)[C@@H](c2c(F)cc(NC3CN(CC[S+]([O-])CCCC(F)(F)C(F)(F)F)C3)cc2F)N1CC(F)(F)F` (some centres not stated), the remaining at 1 h in data set [3] came to 71.6%; in data set [4] it was 43%.
One may read the half-life as the time needed for the level to fall by half in the phase considered. Low values mean rapid decline, high ones slow decline. As usually defined, the Tmax is the time at which the peak concentration occurs. The Cmax is the maximum level reached in the sampled fluid or tissue. As a reminder, the MRT is a mean duration of stay, worked out from the concentration-time curve. One may read the solubility as the dissolved amount per volume that the medium holds. In the case of `C[C@@H]1Cc2c([nH]c3ccccc23)[C@@H](c2c(F)cc(NC3CN(CCCS(=O)(=O)CCCC(F)(F)C(F)(F)F)C3)cc2F)N1CC(F)(F)CO`, the remaining at 1 h in [3] came to 85.7%; in data set [4], 61%. Further, the viability at 0.004 µM in data set [5] was determined as 82.7%. In addition, in data set [6], the viability at 0.02 µM was determined as 70.5%. The viability at 0.1 µM in data set [7] turned out to be 66.2%. In addition, the half-life in data set [8] was 14.7 days. For the same compound, the Tmax in data set [9] is 14 days. The Cmax in data set [10] amounted to 0.0415 µg/mL. Moreover, the AUClast in data set [11] was determined as 840.09 ng·days/mL. In addition, in [12], the Vz/F was 1658.37 L/kg. In [13], this compound gave an MRT of 15.6 days. Besides, the solubility result in data set [14] is “Soluble”; in [15], “Insoluble”; in data set [16], “Insoluble”; in data set [17], 95.1 mg/mL (≈ 131 mM). Moreover, the concentration at 672 h in data set [18] came to 0.0149 µg/mL; in [19], 0.0466 µg/mL; in data set [20] it was 0.0877 µg/mL; in [21] it was 0.0359 µg/mL; in data set [22] it was 0.154 µg/mL; in data set [23], 0.252 µg/mL.

The values above are taken from ChEMBL document CHEMBL5528003 (Eur J Med Chem, 2024).
